Tests used:
PAMPA analysis = format: in vitro ADME; details: pH 7.4, GIT Lipid-0, incubation for 4 h, read-out: Pe pH 7.4
Procedure: Donor: System Solution Concentrate (pION inc.) (25 mL) and DMSO (50 mL) (f.c. 5%) was diluted to 1 L with milliQ water, adjusted to pH5.0 or 7.4 with NaOH. Compound solution (5 μL, 10 mM solution in DMSO) was added to 1 mL of system solution prepared as above, and filtered.
Acceptor: Acceptor Sink Buffer(pION inc.)
Compound solution (200 μL) was added to Donor plate. GIT Lipid-0 (pION inc.) […] was added to Acceptor plate. Acceptor Sink Buffer (200 μL) was added to Acceptor plate. Donor and Acceptor plates were superposed. After incubation for 4 h under humidified conditions, the concentration of test compound in both solutions of Acceptor and Donor plates were measured by UV plate reader (190-500 nm). Permeation coefficient Pe(10^−6 cm/sec) was calculated by the equation shown below.
[formula] ra=(VD/VA)Pe^(A→D)/Pe^(D→A)=rVPe^(A→D)/Pe^(D→A)
rV=(VD/VA) • VD=volume of donor well • VA=volume of acceptor well • t=permeation time • τ^SS=steady state time • R=retention • CD and CA=concentration in donor and acceptor well The results are shown in Table 4.

hERG potassium channel = target: T1, hERG potassium channel (Homo sapiens, UniProt Q12809); experiment: hERG analysis Method 1 (QPatch HT automated patch clamp, CHO cells); format: cell-based; details: hERG-expressing CHO cells, tail current, room temperature (22±2° C.), 4 cumulative concentrations
T1 construct: expressed in transfected cells; host or cells: Chinese hamster ovary K1 (CHO) cells stably expressing hERG
Procedure: hERG (Human Ether-a-go-go Related Gene) Analysis—Method 1
The hERG potassium current is measured in a hERG-stably-expressing Chinese hamster ovary K1 (CHO) cells. The experiments were performed using an automated planar patch-clamp system QPatch HT (Sophion Bioscience A/S). The application of pressure for forming gigaseals and whole-cell patch clamp configuration were established using the QPatch assay software. Patch-clamp experiments were performed in voltage-clamp mode and whole-cell currents were recorded from individual cells. The following stimulation protocol was applied to investigate the effects of compounds on hERG potassium channel.: The membrane potential was held at −80 mV and repetitively (every 15 s) depolarized to +20 mV for 5 s after the pulse to −50 mV for 20 ms served to define the baseline, followed by repolarizing step to −50 mV for 5 s to evaluate of the tail current amplitude. Experiments were conducted at room temperature (22±2° C.).
Effects of compounds were determined from cumulative applications of increasing 4 concentrations and calculated as percent of blocked current. The data points were fitted with Hill equation to calculate half-maximal inhibition concentrations.
The test solution includes:
Extracellular solution (mM): 2 mM of CaCl2, 1 mM of MgCl2, 10 mM of HEPES, 4 mM of KCl, 145 mM of NaCl, and 10 mM of glucose; and
Intracellular solution (mM): 5.4 mM of CaCl2, 1.8 mM of MgCl2, 10 mM of HEPES, 31 mM of KOH, 10 mM of EGTA, 120 mM of KCl, and 4 mM of ATP.

Recombinant human TLR7 = target: T2, Recombinant human TLR7 (Homo sapiens, UniProt Q9NYK1); experiment: Human TLR7 assay (SEAP reporter in HEK293 cells); format: cell-based; details: TLR7 activation, SEAP induction, overnight incubation at 37° C., 0.1% DMSO
T2 construct: expressed in transfected cells; host or cells: HEK293 cell line stably expressing the pNiFty2-SEAP reporter plasmid
T2 sequence (Q9NYK1 27-1049): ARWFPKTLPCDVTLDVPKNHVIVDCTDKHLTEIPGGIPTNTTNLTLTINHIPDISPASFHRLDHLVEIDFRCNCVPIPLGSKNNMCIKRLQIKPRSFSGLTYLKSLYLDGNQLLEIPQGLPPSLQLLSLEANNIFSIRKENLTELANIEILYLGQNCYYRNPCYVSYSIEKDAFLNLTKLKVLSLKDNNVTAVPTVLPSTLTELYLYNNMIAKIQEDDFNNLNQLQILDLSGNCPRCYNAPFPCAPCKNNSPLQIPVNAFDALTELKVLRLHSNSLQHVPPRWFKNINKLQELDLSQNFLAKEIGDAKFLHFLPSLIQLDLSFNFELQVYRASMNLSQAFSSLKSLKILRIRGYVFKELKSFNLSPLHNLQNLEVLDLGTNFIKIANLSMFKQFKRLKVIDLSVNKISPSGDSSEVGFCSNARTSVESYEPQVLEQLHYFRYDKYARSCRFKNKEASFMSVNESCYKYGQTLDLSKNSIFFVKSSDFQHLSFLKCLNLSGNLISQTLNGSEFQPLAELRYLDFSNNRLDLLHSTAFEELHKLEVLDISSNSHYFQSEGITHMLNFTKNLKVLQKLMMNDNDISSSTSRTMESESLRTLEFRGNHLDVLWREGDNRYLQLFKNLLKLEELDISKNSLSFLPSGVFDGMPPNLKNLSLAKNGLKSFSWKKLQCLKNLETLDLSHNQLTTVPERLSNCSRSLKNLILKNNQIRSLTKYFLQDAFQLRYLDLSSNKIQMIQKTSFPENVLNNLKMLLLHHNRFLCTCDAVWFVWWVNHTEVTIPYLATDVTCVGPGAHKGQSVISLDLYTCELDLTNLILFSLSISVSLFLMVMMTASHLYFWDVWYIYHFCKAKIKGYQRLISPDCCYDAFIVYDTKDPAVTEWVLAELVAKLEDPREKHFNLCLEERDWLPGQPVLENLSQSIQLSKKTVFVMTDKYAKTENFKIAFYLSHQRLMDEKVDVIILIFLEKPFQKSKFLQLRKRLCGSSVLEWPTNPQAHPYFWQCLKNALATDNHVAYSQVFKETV
Procedure: The ability of compounds to activate TLR7 in vitro was assessed using the human TLR7 assay described below.
Recombinant human TLR7 was stably expressed in a HEK293 cell line already stably expressing the pNiFty2-SEAP reporter plasmid; integration of the reporter gene was maintained by selection with the antibiotic zeocin. The most common variant sequence of human TLR7 (represented by the EMBL sequence AF240467) was cloned into the mammalian cell expression vector pUNO and transfected into this reporter cell-line. Transfectants with stable expression were selected using the antibiotic blasticidin. In this reporter cell-line, expression of secreted alkaline phosphatase (SEAP) is controlled by an NF-κB/ELAM-1 composite promoter comprising five NF-κB sites combined with the proximal ELAM-1 promoter. TLR signaling leads to the translocation of NF-κB and activation of the promoter results in expression of the SEAP gene. TLR7-specific activation was assessed by determining the level of SEAP produced following overnight incubation of the cells at 37° C. with the standard compound in the presence of 0.1% (v/v) dimethylsulfoxide (DMSO). Concentration dependent induction of SEAP production by compounds was expressed as the concentration of compound which produced half of the maximal level of SEAP induction for that compound (EC50).

T1 sequence (Q12809 whole entry): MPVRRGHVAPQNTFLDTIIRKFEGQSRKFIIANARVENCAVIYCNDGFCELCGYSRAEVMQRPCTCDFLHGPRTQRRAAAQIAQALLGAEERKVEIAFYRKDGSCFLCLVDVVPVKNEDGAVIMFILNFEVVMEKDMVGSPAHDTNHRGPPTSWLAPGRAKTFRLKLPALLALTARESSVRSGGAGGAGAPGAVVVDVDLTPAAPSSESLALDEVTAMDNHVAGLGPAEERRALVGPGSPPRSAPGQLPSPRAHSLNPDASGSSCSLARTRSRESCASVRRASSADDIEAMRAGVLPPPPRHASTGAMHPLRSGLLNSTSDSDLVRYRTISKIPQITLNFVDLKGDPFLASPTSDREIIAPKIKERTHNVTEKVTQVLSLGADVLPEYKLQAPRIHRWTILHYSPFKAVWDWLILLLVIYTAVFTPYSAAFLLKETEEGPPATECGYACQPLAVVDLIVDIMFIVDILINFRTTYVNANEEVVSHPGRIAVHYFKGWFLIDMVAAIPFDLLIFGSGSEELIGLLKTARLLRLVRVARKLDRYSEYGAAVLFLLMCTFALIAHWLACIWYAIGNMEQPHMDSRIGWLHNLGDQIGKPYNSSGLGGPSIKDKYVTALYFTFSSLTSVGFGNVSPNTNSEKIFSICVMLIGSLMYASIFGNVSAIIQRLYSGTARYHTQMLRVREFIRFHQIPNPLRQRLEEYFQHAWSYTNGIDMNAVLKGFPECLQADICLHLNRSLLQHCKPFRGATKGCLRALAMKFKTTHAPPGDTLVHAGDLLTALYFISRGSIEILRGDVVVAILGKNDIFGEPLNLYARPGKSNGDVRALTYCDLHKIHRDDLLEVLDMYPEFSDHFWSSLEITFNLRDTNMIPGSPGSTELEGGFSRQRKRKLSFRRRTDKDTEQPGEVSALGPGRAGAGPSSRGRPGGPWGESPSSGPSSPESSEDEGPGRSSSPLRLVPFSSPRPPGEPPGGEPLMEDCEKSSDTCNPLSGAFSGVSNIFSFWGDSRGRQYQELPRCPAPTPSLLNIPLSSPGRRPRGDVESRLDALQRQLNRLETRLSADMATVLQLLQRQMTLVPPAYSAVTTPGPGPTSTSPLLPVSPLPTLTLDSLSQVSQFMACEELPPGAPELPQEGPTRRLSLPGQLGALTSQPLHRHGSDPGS

Row | Papp at 4 h, 50 µM (PAMPA analysis) [×10⁻⁶ cm/s] | EC50 (Recombinant human TLR7) [µM] | Structure (SMILES) | IC50 (hERG potassium channel) [µM]
1 | 35.6 | 0.0631 | CCCCNc1nc(N)nc(C)c1Cc1ccc(N2CCN(C)CC2=O)cc1OC [Example 1, 1-(4-{[2-Amino-4-(butylamino)-6-methylpyrimidin-5-yl]methyl}-3-methoxyphenyl)-4-methylpiperazin-2-one] | 2.9
2 | 44.2 | 0.0631 | CCCCCNc1nc(N)nc(C)c1Cc1ccc(N2CCN(C)CC2=O)cc1OC [Example 2, 1-(4-{[2-Amino-4-methyl-6-(pentylamino)pyrimidin-5-yl]methyl}-3-methoxyphenyl)-4-methylpiperazin-2-one] | 0.8
3 | 23.7 | 0.0251 | CCC[C@@H](CCO)Nc1nc(N)nc(C)c1Cc1ccc(N2CCN(C)CC2=O)cc1OC [Example 3, (S)-1-(4-{[2-Amino-4-(1-hydroxyhexan-3-ylamino)-6-methylpyrimidin-5-yl]methyl}-3-methoxyphenyl)-4-methylpiperazin-2-one] | > 10
4 | 1.3 | 0.2 | CCC[C@@H](CO)Nc1nc(N)nc(C)c1Cc1ccc(N2CCN(C)CC2=O)cc1OC [Example 4, (S)-1-(4-{[2-Amino-4-(1-hydroxypentan-2-ylamino)-6-methylpyrimidin-5-yl]methyl}-3-methoxyphenyl)-4-methylpiperazin-2-one] | > 10
5 | < 0.1 | 0.126 | CCC[C@@H](CCO)Nc1nc(N)nc(C)c1Cc1ccc(N2CCNCC2=O)cc1OC [Example 5, (S)-1-(4-{[2-Amino-4-(1-hydroxyhexan-3-ylamino)-6-methylpyrimidin-5-yl]methyl}-3-methoxyphenyl)piperazin-2-one] | > 10
